Assay results reported in US20240262826A1, “WILD TYPE KIT INHIBITORS” (Blueprint Medicines Corporation, priority 2022, published 2024).
pIC50: −log10 of the molar value.

What was measured:
[1] = biological target: wild type c-kit (Homo sapiens (Human), UniProt P10721); test: PathScan phospho c-kit (Tyr719) sandwich ELISA in SCF-stimulated M-07e cells (pKIT assay); format: cell-based; conditions: ELISA assay (values not marked *)
In short: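 Tyr719-phosphorylated c-kit was measured by colorimetric (TMB) sandwich ELISA in lysates of M-07e cells. Cells were starved 4 h without serum or GM-CSF, dosed 60 min at 37 °C with compound (8 points, duplicate, 0.25% DMSO), and stimulated 10 min with human SCF (500 ng/mL as added). IC50 values came from 4-parameter logistic regression.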

[2] = biological target: human P-glycoprotein (P-gp, MDR1) (Homo sapiens (Human), UniProt P08183); test: MDCK-MDR1 cell monolayer drug transport assay (P-gp efflux ratio); format: in vitro ADME; conditions: pH 7.4, MDCK-MDR1 cells; for efflux ratio at 2 h, 1 µM: 1 uM concentration of compound, read-out: Pgp Efflux Ratio, 1 uM
Sequence of human P-glycoprotein (P-gp, MDR1) (P08183 whole entry): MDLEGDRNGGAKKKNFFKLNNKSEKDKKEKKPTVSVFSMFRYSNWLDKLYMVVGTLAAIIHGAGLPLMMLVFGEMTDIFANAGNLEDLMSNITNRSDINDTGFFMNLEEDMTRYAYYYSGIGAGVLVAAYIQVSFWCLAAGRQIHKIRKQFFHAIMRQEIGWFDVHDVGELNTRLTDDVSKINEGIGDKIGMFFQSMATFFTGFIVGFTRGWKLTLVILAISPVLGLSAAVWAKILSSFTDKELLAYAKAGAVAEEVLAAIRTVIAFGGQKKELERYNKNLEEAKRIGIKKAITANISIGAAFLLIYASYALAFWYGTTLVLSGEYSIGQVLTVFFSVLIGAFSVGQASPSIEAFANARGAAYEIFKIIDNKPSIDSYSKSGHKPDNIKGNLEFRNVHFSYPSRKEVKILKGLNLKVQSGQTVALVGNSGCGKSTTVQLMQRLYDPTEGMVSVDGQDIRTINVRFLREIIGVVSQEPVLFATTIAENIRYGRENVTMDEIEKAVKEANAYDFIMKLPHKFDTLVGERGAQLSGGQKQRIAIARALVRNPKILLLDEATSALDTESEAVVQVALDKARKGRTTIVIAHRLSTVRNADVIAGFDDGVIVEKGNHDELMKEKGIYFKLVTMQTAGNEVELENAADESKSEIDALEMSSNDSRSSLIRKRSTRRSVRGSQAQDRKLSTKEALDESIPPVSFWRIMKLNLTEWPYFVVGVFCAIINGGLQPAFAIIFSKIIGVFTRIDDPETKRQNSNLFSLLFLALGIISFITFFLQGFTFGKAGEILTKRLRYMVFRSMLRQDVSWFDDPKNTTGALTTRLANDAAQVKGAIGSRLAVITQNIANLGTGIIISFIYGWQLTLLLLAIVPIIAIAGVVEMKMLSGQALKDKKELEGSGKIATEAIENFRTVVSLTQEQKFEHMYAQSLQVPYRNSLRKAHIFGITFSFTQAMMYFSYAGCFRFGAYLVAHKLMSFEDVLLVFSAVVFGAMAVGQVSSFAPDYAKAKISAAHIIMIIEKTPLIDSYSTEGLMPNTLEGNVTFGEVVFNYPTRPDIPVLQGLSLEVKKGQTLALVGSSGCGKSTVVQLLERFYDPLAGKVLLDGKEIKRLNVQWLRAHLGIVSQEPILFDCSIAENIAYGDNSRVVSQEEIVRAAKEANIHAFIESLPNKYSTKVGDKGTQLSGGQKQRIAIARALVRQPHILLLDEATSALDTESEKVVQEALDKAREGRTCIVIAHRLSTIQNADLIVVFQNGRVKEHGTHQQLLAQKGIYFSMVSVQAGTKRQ
In short: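 P-gp substrate potential tested in MDCK-MDR1 monolayers on Transwell supports, cultured 4-8 days; monolayers with TEER <42 ohms·cm2 discarded. Transport run in HBSS (10 mM HEPES, pH 7.4) at 37° C with compound working solution at 1 μM.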

Sequence of wild type c-kit (P10721 26-976): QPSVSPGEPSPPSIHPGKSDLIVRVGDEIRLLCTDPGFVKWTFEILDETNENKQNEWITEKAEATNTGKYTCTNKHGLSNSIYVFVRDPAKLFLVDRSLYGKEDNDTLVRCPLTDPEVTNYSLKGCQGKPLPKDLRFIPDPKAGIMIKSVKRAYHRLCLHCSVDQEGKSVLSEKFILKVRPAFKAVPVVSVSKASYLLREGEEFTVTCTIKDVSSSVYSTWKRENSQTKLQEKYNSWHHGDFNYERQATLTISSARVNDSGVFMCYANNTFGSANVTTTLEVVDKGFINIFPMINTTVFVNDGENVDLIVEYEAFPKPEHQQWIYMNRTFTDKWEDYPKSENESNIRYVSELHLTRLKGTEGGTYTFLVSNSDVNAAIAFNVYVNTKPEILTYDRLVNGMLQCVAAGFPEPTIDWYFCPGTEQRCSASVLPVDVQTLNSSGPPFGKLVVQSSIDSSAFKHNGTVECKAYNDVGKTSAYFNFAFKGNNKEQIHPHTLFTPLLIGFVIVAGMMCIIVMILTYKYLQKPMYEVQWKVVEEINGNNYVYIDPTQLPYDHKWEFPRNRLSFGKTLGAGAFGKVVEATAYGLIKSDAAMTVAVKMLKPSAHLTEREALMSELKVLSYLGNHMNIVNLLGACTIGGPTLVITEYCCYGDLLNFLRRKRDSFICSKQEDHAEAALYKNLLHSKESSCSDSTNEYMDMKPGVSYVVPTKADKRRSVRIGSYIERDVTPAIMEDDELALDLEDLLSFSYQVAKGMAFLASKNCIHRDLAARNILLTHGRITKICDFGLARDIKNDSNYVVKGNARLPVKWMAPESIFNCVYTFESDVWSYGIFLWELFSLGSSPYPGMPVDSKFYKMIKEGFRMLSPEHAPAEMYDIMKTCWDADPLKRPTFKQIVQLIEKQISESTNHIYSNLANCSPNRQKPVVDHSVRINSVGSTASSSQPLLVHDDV

| Compound | pIC50 [1] | efflux ratio at 2 h, 1 µM [2] | efflux ratio at 2 h, 0.1 µM ([2]; 0.1 uM concentration of compound (denoted by **), read-out: Pgp Efflux Ratio) |
| --- | --- | --- | --- |
| COC[C@@](C)(O)Cn1cc(-c2ccn3ncc(C(=O)Nc4cc(-c5nnn(C6CC6)n5)ccc4C)c3c2)cn1 (single isomer, unassigned) [Example 268, (S)-N-(5-(2-cyclopropyl-2H-tetrazol-5-yl)-2-methylphenyl)-5-(1-(2-hydroxy-3-methoxy-2-methylpropyl)-1H-pyrazol-4-yl)pyrazolo[1,5-a]pyridine-3-carboxamide or (R)-N-(5-(2-cyclopropyl-2H-tetrazol-5-yl)-2-methylphenyl)-5-(1-(2-hydroxy-3-methoxy-2-methylpropyl)-1H-pyrazol-4-yl)pyrazolo[1,5-a]pyridine-3-carboxamide] | 8.80 | 5.2 |  |
| Cc1nnn(-c2ccc(C)c(NC(=O)c3cnn4ccc(-c5cn(C[C@H]6CNCCO6)nc5C)cc34)c2)n1 [Example 230, (R)-5-(3-methyl-1-(morpholin-2-ylmethyl)-1H-pyrazol-4-yl)-N-(2-methyl-5-(5-methyl-2H-tetrazol-2-yl)phenyl)pyrazolo[1,5-a]pyridine-3-carboxamide] | 9.10 | 116 |  |
| COC(=O)N1CC(n2nnc(-c3ccc(C)c(NC(=O)c4cnn5ccc(NC[C@H](C)O)cc45)c3)n2)C1 [Example 94, methyl (S)-3-(5-(3-(5-((2-hydroxypropyl)amino)pyrazolo[1,5-a]pyridine-3-carboxamido)-4-methylphenyl)-2H-tetrazol-2-yl)azetidine-1-carboxylate] | 6.88 | 22.3 |  |
| Cc1ccc(-c2nnn(C3CC3)n2)cc1NC(=O)c1cnn2ccc(-c3cnn(CCCN4CCOCC4)c3)cc12 [Example 220, N-(5-(2-cyclopropyl-2H-tetrazol-5-yl)-2-methylphenyl)-5-(1-(3-morpholinopropyl)-1H-pyrazol-4-yl)pyrazolo[1,5-a]pyridine-3-carboxamide] | 8.74 | 12.4 |  |
| COC[C@](C)(O)Cn1cc(-c2ccn3ncc(C(=O)Nc4cc(-c5nnn(C6CC6)n5)ccc4C)c3c2)cn1 (single isomer, unassigned) [Example 267, (R)-N-(5-(2-cyclopropyl-2H-tetrazol-5-yl)-2-methylphenyl)-5-(1-(2-hydroxy-3-methoxy-2-methylpropyl)-1H-pyrazol-4-yl)pyrazolo[1,5-a]pyridine-3-carboxamide or (S)-N-(5-(2-cyclopropyl-2H-tetrazol-5-yl)-2-methylphenyl)-5-(1-(2-hydroxy-3-methoxy-2-methylpropyl)-1H-pyrazol-4-yl)pyrazolo[1,5-a]pyridine-3-carboxamide] | 8.85 | 2.9 |  |
| Cc1nnn(-c2ccc(C)c(NC(=O)c3cnn4ccc(-c5cnn(CC(C)(C)O)c5)cc34)c2)n1 [Example 209, 5-(1-(2-hydroxy-2-methylpropyl)-1H-pyrazol-4-yl)-N-(2-methyl-5-(5-methyl-2H-tetrazol-2-yl)phenyl)pyrazolo[1,5-a]pyridine-3-carboxamide] | 8.16 | 4.3 |  |
| Cc1ccc(-n2nnc(C3CC3)n2)cc1NC(=O)c1cnn2ccc(-c3cnn(CCO)c3)cc12 [Example 52, N-(5-(5-cyclopropyl-2H-tetrazol-2-yl)-2-methylphenyl)-5-(1-(2-hydroxyethyl)-1H-pyrazol-4-yl)pyrazolo[1,5-a]pyridine-3-carboxamide] | 9.15 | 5.9 |  |
| COC(=O)N1CC(n2nnc(-c3ccc(C)c(NC(=O)c4cnn5ccc(N6CC[C@@H](N(C)C)C6)cc45)c3)n2)C1 [Example 97, methyl (R)-3-(5-(3-(5-(3-(dimethylamino)pyrrolidin-1-yl)pyrazolo[1,5-a]pyridine-3-carboxamido)-4-methylphenyl)-2H-tetrazol-2-yl)azetidine-1-carboxylate] | 6.95 | 23.2 |  |
| COC[C@@H](O)Cn1cc(-c2ccn3ncc(C(=O)Nc4cc(-c5nnn(C6CC6)n5)c(F)cc4C)c3c2)c(C2CC2)n1 [Example 257, (S)-5-(3-cyclopropyl-1-(2-hydroxy-3-methoxypropyl)-1H-pyrazol-4-yl)-N-(5-(2-cyclopropyl-2H-tetrazol-5-yl)-4-fluoro-2-methylphenyl)pyrazolo[1,5-a]pyridine-3-carboxamide] | 9.15 | 8.9 |  |
| Cc1cc(F)c(-c2nnn([C@H]3C[C@@H](C(F)(F)F)C3)n2)cc1NC(=O)c1cnn2ccc(N3CCC(C)(O)CC3)cc12 [Example 109, N-(4-fluoro-2-methyl-5-(2-((1s,3s)-3-(trifluoromethyl)cyclobutyl)-2H-tetrazol-5-yl)phenyl)-5-(4-hydroxy-4-methylpiperidin-1-yl)pyrazolo[1,5-a]pyridine-3-carboxamide] | 8.31 | 15.4 |  |
| COCCS(=O)(=O)N1CC(n2nnc(-c3ccc(C)c(NC(=O)c4cnn5ccccc45)c3)n2)C1 [Example 178, N-(5-(2-(1-((2-methoxyethyl)sulfonyl)azetidin-3-yl)-2H-tetrazol-5-yl)-2-methylphenyl)pyrazolo[1,5-a]pyridine-3-carboxamide] | 7.75 | 4.7 |  |
| Cc1nn(CC(C)(C)O)cc1-c1ccn2ncc(C(=O)Nc3cc(-c4nnn(C5CC5)n4)c(F)cc3Cl)c2c1 [Example 251, N-(2-chloro-5-(2-cyclopropyl-2H-tetrazol-5-yl)-4-fluorophenyl)-5-(1-(2-hydroxy-2-methylpropyl)-3-methyl-1H-pyrazol-4-yl)pyrazolo[1,5-a]pyridine-3-carboxamide] | 9.40 |  | 1.8 |
| Cc1ccc(-c2nnn(C3CN(S(C)(=O)=O)C3)n2)cc1NC(=O)c1cnn2ccccc12 [Example 172, N-(2-methyl-5-(2-(1-(methylsulfonyl)azetidin-3-yl)-2H-tetrazol-5-yl)phenyl)pyrazolo[1,5-a]pyridine-3-carboxamide] | 7.45 | 5.5 |  |
| COCCNc1ccn2ncc(C(=O)Nc3cc(-c4nnn(C5CN(C(=O)OC)C5)n4)c(F)cc3C)c2c1 [Example 114, methyl 3-(5-(2-fluoro-5-(5-((2-methoxyethyl)amino)pyrazolo[1,5-a]pyridine-3-carboxamido)-4-methylphenyl)-2H-tetrazol-2-yl)azetidine-1-carboxylate] | 7.50 | 14.6 |  |
| COCCNc1ccc2c(C(=O)Nc3cc(-c4nnn(C5CN(C(=O)OC)C5)n4)ccc3Cl)cnn2c1 [Example 157, methyl 3-(5-(4-chloro-3-(6-((2-methoxyethyl)amino)pyrazolo[1,5-a]pyridine-3-carboxamido)phenyl)-2H-tetrazol-2-yl)azetidine-1-carboxylate] | 8.19 | 5.9 |  |
| COC(=O)N1CC(c2cnn(-c3ccc(C)c(NC(=O)c4cnn5ccc(NCC6COC6)cc45)c3)n2)C1 [Example 140, methyl 3-(2-(4-methyl-3-(5-((oxetan-3-ylmethyl)amino)pyrazolo[1,5-a]pyridine-3-carboxamido)phenyl)-2H-1,2,3-triazol-4-yl)azetidine-1-carboxylate] | 7.62 | 72.2 |  |
| Cc1ccc(-n2nnc(C3CC3)n2)cc1NC(=O)c1cnn2cc(-c3cnn(CC4(O)CCOCC4)c3)cc(F)c12 [Example 277, N-(5-(5-cyclopropyl-2H-tetrazol-2-yl)-2-methylphenyl)-4-fluoro-6-(1-((4-hydroxytetrahydro-2H-pyran-4-yl)methyl)-1H-pyrazol-4-yl)pyrazolo[1,5-a]pyridine-3-carboxamide] | 9.30 | 3 |  |
| Cc1cc(C#N)c(-c2nnn(C3CC(F)(F)C3)n2)cc1NC(=O)c1cnn2ccc(N3CCOCC3)cc12 [Example 165, N-(4-cyano-5-(2-(3,3-difluorocyclobutyl)-2H-tetrazol-5-yl)-2-methylphenyl)-5-morpholinopyrazolo[1,5-a]pyridine-3-carboxamide] | 7.58 | 6.6 |  |
| Cc1ccc(-n2nnc(C3CC3)n2)cc1NC(=O)c1cnn2ccc(-c3cnn(CC(C)(C)O)c3)cc12 [Example 225, N-(5-(5-cyclopropyl-2H-tetrazol-2-yl)-2-methylphenyl)-5-(1-(2-hydroxy-2-methylpropyl)-1H-pyrazol-4-yl)pyrazolo[1,5-a]pyridine-3-carboxamide] | 8.77 | 3.3 |  |
| CCS(=O)(=O)N1CC(n2nnc(-c3ccc(C)c(NC(=O)c4cnn5ccccc45)c3)n2)C1 [Example 173, N-(5-(2-(1-(ethylsulfonyl)azetidin-3-yl)-2H-tetrazol-5-yl)-2-methylphenyl)pyrazolo[1,5-a]pyridine-3-carboxamide] | 7.92 | 3.5 |  |
| COC(=O)N1CC(n2nnc(-c3ccc(C)c(NC(=O)c4cnn5ccc(COCC(F)F)cc45)c3)n2)C1 [Example 162, methyl 3-(5-(3-(5-((2,2-difluoroethoxy)methyl)pyrazolo[1,5-a]pyridine-3-carboxamido)-4-methylphenyl)-2H-tetrazol-2-yl)azetidine-1-carboxylate] | 7.74 | 5.3 |  |
| COC(=O)N1CC(c2nnn(-c3ccc(C)c(NC(=O)c4cnn5ccc(N6CCN(C)CC6)cc45)c3)n2)C1 [Example 112, methyl 3-(2-(4-methyl-3-(5-(4-methylpiperazin-1-yl)pyrazolo[1,5-a]pyridine-3-carboxamido)phenyl)-2H-tetrazol-5-yl)azetidine-1-carboxylate] | 7.36 | 15.7 |  |
